Measured values taken from ChEMBL document CHEMBL4619786, “Discovery of Novel Resorcinol Dibenzyl Ethers Targeting the Programmed Cell Death-1/Programmed Cell Death-Ligand 1 Interaction as Potential Anticancer Agents” (J Med Chem, 2020).
pIC50: −log10 of the molar value.

Key:
[1] = target: Programmed cell death protein 1/Programmed cell death 1 ligand 1 (Homo sapiens, UniProt Q9NZQ7); assay: Inhibition of human PD1/PDL1 protein-protein interaction by HTRF assay; type: protein-complex assay
A549 = assay: Cytotoxicity against human A549 cells assessed as reduction in cell viability measured after 48 hrs by MTT assay; type: functional, cell-based; conditions: A549, 48 h
B16-F10 = assay: Cytotoxicity against mouse B16/F10 cells assessed as reduction in cell viability measured after 48 hrs by MTT assay; type: functional, cell-based; conditions: B16-F10, 48 h
MCF7 = assay: Cytotoxicity against human MCF7 cells assessed as reduction in cell viability measured after 48 hrs by MTT assay; type: functional, cell-based; conditions: MCF7, 48 h

Sequence of Programmed cell death protein 1/Programmed cell death 1 ligand 1 (Q15116 whole entry): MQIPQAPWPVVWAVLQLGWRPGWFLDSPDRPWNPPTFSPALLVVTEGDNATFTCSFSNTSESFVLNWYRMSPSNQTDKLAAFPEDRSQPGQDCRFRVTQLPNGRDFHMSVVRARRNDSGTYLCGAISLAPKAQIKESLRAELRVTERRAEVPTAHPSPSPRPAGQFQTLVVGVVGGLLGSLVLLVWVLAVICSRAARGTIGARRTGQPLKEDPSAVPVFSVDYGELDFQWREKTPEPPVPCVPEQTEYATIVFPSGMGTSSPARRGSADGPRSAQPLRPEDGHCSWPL
Sequence of Programmed cell death protein 1/Programmed cell death 1 ligand 1 (Q9NZQ7 whole entry): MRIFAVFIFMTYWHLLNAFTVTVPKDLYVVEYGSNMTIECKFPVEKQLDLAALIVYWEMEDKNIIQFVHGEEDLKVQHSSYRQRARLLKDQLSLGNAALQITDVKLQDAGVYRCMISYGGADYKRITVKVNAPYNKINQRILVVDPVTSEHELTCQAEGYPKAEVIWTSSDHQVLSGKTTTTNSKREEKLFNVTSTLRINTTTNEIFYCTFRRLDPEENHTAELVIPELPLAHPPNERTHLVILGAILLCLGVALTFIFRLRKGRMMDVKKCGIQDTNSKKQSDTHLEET

Compound | pIC50 [1] | further results
Cc1c(COc2cc(OCc3cccc(C#N)c3)c(CN[C@H](C(=O)O)[C@H](C)O)cc2Cl)cccc1-c1ccccc1 | 7.85 | 
O=c1cc(-c2ccc(O)cc2)oc2cc(O[C@@H]3O[C@H](CO)[C@@H](O)[C@H](O)[C@H]3O[C@@H]3OC[C@](O)(CO)[C@H]3O)cc(O)c12 [APIIN] | < 4.00 | 
Cc1c(COc2cc(OCc3cccc(C#N)c3)c(CN3CC(C)(O)C3)cc2Cl)cccc1-c1ccc2c(c1)OCCO2 | 7.00 to 8.00 | 
CC(=O)N1CCN(Cc2ccc(O)c(C(=O)/C=C/c3cccc(-c4ccccc4)c3)c2)CC1 | < 4.70 | 
Cc1c(/C=C/C(=O)c2cc(CN3CCNCC3)ccc2O)cccc1-c1ccccc1 | < 4.70 | 
Cc1c(COc2cc(OCc3cccc(C#N)c3)c(CN[C@@H](C(=O)O)[C@H](C)O)cc2Cl)cccc1-c1ccncc1 | < 7.00 | 
CC(=O)N1CCN(Cc2ccc(O)c(C(=O)/C=C/c3cccc(-c4ccc5c(c4)OCCO5)c3C)c2)CC1 | < 4.70 | 
CCN1CCN(Cc2cc(Cl)c(OCc3cccc(-c4ccc5c(c4)OCCO5)c3C)cc2OCc2cccc(C#N)c2)CC1 | 6.15 | 
Cc1c(COc2cc(OCc3cccc(C#N)c3)c(CN3CC(C)(O)C3)cc2Cl)cccc1-c1ccccc1 | < 7.00 | 
Cc1c(COc2cc(OCc3cccc(C#N)c3)c(CNCCNC(=O)OC(C)(C)C)cc2Cl)cccc1-c1ccc2c(c1)OCCO2 | 7.25 | 
Cc1c(COc2cc(OCc3cccc(C#N)c3)c(CN3CCNCC3)cc2Cl)cccc1-c1ccc2c(c1)OCCO2 | 6.63 | 
Cc1c(COc2cc(OCc3cccc(C#N)c3)c(CN3CC(O)C3)cc2Cl)cccc1-c1ccc2c(c1)OCCO2 | 7.52 | 
Cc1c(COc2ccc3cc(CNC(C)(C)C(=O)O)ccc3c2)cccc1-c1ccc2c(c1)OCCO2 | < 5.00 | 
Cc1c(COc2ccc3cc(CNC(C)(C)C(=O)O)ccc3c2)cccc1-c1ccccc1 | < 5.00 | 
Cc1c(COc2cc(OCc3cccc(C#N)c3)c(CN3C[C@@H](O)C[C@H]3C(=O)O)cc2Cl)cccc1-c1cccnc1 | < 7.00 | 
Cc1c(COc2cc(OCc3cccc(C#N)c3)c(CN3CC(O)C(CO)C3)cc2Cl)cccc1-c1ccc2c(c1)OCCO2 (configuration not stated) | 7.78 | 
Cc1c(COc2cc(OCc3cccc(C#N)c3)c(CN3CC(O)C3)cc2Cl)cccc1-c1ccccc1 | < 7.00 | 
Cc1c(COc2cc(OCc3cccc(C#N)c3)c(CN3C[C@@H](O)C[C@H]3C(=O)O)cc2Cl)cccc1-c1ccncc1 | < 7.00 | 
Cc1c(COc2cc(OCc3cccc(C#N)c3)c(CN3CC(C(=O)O)C3)cc2Cl)cccc1-c1ccc2c(c1)OCCO2 | 7.84 | 
Cc1c(COc2cc(OCc3cccc(C#N)c3)c(CN3C[C@H](O)[C@@H](F)C3)cc2Cl)cccc1-c1ccc2c(c1)OCCO2 | < 7.00 | 

Compound | pIC50 [1] | further results
Cc1c(COc2cc(OCc3cccc(C#N)c3)c(CN[C@H](C(=O)O)[C@@H](C)O)cc2Cl)cccc1-c1ccccc1 | 8.05 | 
Cc1c(COc2cc(OCc3cccc(C#N)c3)c(CN3CCN(C(C)C)CC3)cc2Cl)cccc1-c1ccc2c(c1)OCCO2 | < 6.00 | 
Cc1c(COc2cc(OCc3cccc(C#N)c3)c(CN3CC(C(=O)O)C3)cc2Cl)cccc1-c1ccccc1 | 7.51 | 
Cc1c(COc2cc(OCc3cccc(C#N)c3)c(CN[C@H](CO)C(=O)O)cc2Cl)cccc1-c1ccncc1 | < 7.00 | 
Cc1c(COc2cc(OCc3cccc(C#N)c3)c(CN3CC[C@H](C(=O)O)C3)cc2Cl)cccc1-c1ccccc1 | 7.00 to 8.00 | 
Cc1c(/C=C/C(=O)c2cc(CN3CCN(C4CC4)CC3)ccc2O)cccc1-c1ccccc1 | < 4.70 | 
Cc1c(COc2cc(OCc3cccc(C#N)c3)c(CNCCO)cc2Cl)cccc1-c1ccncc1 | < 7.00 | 
CC(=O)N1CCN(Cc2ccc3oc(-c4cccc(-c5ccccc5)c4)cc(=O)c3c2)CC1 | < 5.00 | 
Cc1c(COc2cc(OCc3cccc(C#N)c3)c(CN3CCN(C4CC4)CC3)cc2Cl)cccc1-c1ccc2c(c1)OCCO2 | 6.39 | 
CC(=O)N1CCN(Cc2ccc(O)c(C(=O)/C=C/c3cccc(-c4ccccc4)c3F)c2)CC1 | < 4.70 | 
COc1cc2c(c(O)c1CC=C(C)C)C(=O)C[C@@H](c1ccc(O)cc1)O2 | 4.02 | 
CC(=O)N1CCN(Cc2ccc(O)c(C(=O)/C=C/c3cccc(-c4ccccc4)c3C)c2)CC1 | 4.84 | 
Cc1c(COc2cc(OCc3cccc(C#N)c3)c(CN[C@@H](CO)C(=O)O)cc2Cl)cccc1-c1ccncc1 | < 7.00 | 
CCN1CCN(Cc2ccc3oc(-c4cccc(-c5ccccc5)c4C)cc(=O)c3c2)CC1 | < 5.00 | 
Cc1c(COc2cc(OCc3cccc(C#N)c3)c(CN3CCC(O)C3)cc2Cl)cccc1-c1ccc2c(c1)OCCO2 (configuration not stated) | 7.89 | pIC50 (A549): 5.38; pIC50 (B16-F10): 5.64; pIC50 (MCF7): 5.36
Cc1c(COc2cc(OCc3cccc(C#N)c3)c(CN3C[C@H](O)[C@@H](F)C3)cc2Cl)cccc1-c1ccccc1 | < 7.00 | 
CC(=O)NCCNCc1ccc(O)c(C(=O)/C=C/c2cccc(-c3ccccc3)c2C)c1 | 5.28 | 
Cc1c(COc2ccc3cc(CN4C[C@@H](O)C[C@H]4C(=O)O)ccc3c2)cccc1-c1ccc2c(c1)OCCO2 | < 5.00 | 
Cc1c(COc2cc(OCc3cccc(C#N)c3)c(CN[C@H](CO)C(=O)O)cc2Cl)cccc1-c1cccnc1 | 7.00 to 8.00 | 
